# In publication PMC11530130, “Peripherally restricted PICK1 inhibitor mPD5 ameliorates pain behaviors in murine inflammatory and neuropathic pain models” (JCI Insight, 2024):
# Tests used:
# [1] = tested on: mice, spared nerve injury (SNI) model; assay type: in vivo, mouse; details: mouse, in vivo, sc
# Experimental: solution (0.05 mg/kg) injected s.c. 30 min before surgery (10 μL/g). For surgery, mice were anaesthetised with ketamine (100 mg/kg, i.p.) and xylazine (10 mg/kg, i.p.) (volume 10 µL/g) with 100 μL of 1% xylocaine solution infiltrated at the site of the incision. The distal trifurcation of the sciatic nerve was identified, and the tibial and common peroneal branches were ligated with polypropylene nonabsorbable 6-0 sutures (Ethicon) and 1 mm was cut out, leaving the sural branch intact. The wound was closed with sutures, and the animals were allowed to recover and returned to their cages. Two subcutaneous injections of buprenorphine (0.05 mg/kg) were performed with an 8 to 12 hours delay decreasing pain due to the surgery […]
# The remaining SNI pain experiments were performed in-house using the following procedure.
# SNI surgery was performed on the left hindleg of C57BL/6J male and female mice (Janvier, France) under 2% isoflurane anaesthesia. Skin on the lateral surface was incised between hip and knee followed by lengthwise division of the biceps femoris muscle leading to exposure of the three branches of the sciatic nerve. Sural branch was left intact, while the peroneal and tibial branches were ligated with a single surgical knot and axotomized distally of the ligation.
# Wounds were closed with surgical glue or medical clips and animals were monitored daily for signs of stress or discomfort, but in all cases recovered uneventfully. […]
# (§1) The skin wound was closed with two medical clips (Michel Suture Clips, 7.5x1.75 mm, Angthos, 12040-01). Post-surgical analgesia included s.c. injection of 5 mg/kg carprofen (Carprosan vet, 50 mg/mL mixed 1:25 in sterile ddH2O, Dechra, Le Vet Beheer B.V., Netherlands, Batch: 050520) right after surgery and the […]
# (§2) following day. […]
# (§3) The test battery of the CIBP model was carried out 45 or 90 min after morphine and mPD5 administration respectively to accommodate the peak efficacy […]
# (§4) Mechanically evoked pain (von Frey test).
# (§5) Unless otherwise specified, von Frey occurred as described in the following. Animals were habituated to the experimental room for a minimum of 60 min before initiation of the experiment. Mechanical paw withdrawal threshold (PWT) was determined by von Frey measurements of both hind paws. Von Frey filaments ranging from 0.04 to 2 g (g = gram- […]
# (§6) Filaments in ascending order were applied to the frontocentral plantar surface of the hind paws.
# (§7) Mice were placed in PVC plastic boxes (11.5 cm x 14 cm) on a wire mesh and allowed minimum 20 min habituation prior of experiment initiation. Each von Frey hair was applied five times with adequate resting periods between each application and number of withdrawals recorded. The withdrawal threshold was determined as the von Frey filament eliciting at least three positive trials out of the five applications in two consecutive filaments. A positive trial was defined as sudden paw withdrawal, flinching and/or paw licking induced by the filament.
# (§8) For the CIBP model, two habituation sessions were performed on separated days with mice placed in the von Frey equipment for 1-1.5 hours in the presence of the experimenter on day one and random von Frey pocking with the 0.6 g filament on day two. Von Frey monofilaments (North Coast Touch Test, North Coast Medical, Inc.) with target forces of 0.04g, 0.07g, 0.16g, […]
# (§9) down method” (PWT=10Xf+kδ) starting with the 0.6 g filament. Positive response was defined as; withdrawal, shaking or grooming of paw following a 2-3 second stimulation. In case, of unclear response, stimulus was repeated after 10-15 seconds.
# (§10) For the STZ model, the mechanical threshold response of the injected mice was measured with […]
# (§11) injection of test compounds on day 14, mechanical threshold was measured at 1 hour, 2 hours, 4 hours and 6 hours and again on day 15. […]
# (§12) Thermally evoked pain (Hargreaves test).
# A baseline Hargreaves test was performed on day 0 before inflammatory pain was induced as described in section 2.13. In the Hargreaves test, the mouse was placed in a container on a glass […]
# [2] = tested on: mice, streptozocin (STZ) model of type 1 diabetes; assay: STZ model of diabetic neuropathy, von Frey; assay type: in vivo, mouse; details: male mice, positive control, dose not given
# Experimental: Induction of Diabetic neuropathy (STZ model).
# Diabetes was induced by a single i.p. injection of […] streptozocin (STZ) solution (100 μL/10 g, Sigma-Aldrich S0130, batch #WXBB7152V) in male seven-week-old C57BL/6J (Charles River) mice. Glycemia was tested before, and seven days after injection. All injected mice had blood glucose concentration >350 mg/dL from day seven and were used for analgesic testing of the compounds from day 14. One mouse had to be euthanized at seven days post injection. This experiment was performed by Phenotype Expertise, Marseilles, France - Pain and CNS behaviour CRO under supervision of Stéphane Gaillard, PhD (CEO). […]
# as §1, §2, §3, §4, §5, §6, §7, §8, §9, §10, §11, §12
# A baseline Hargreaves test was performed on day 0 before inflammatory pain was induced as described in section 2.13. In the Hargreaves test, the mouse was placed in a container on a glass table and left to habituate for at least 15 min. Using the Hargreaves apparatus, a heat beam from beneath was directed towards the hind paws of the mouse, and the paw withdrawal time
SMILES,itching in the mice [1],duration of significant pain relief [2]
"CCCCCCCCCCCCCCCCCCCC(=O)N(CCOCCOCCC(=O)N[C@@H](Cc1c[nH]cn1)C(=O)N[C@@H](Cc1c[nH]c2ccccc12)C(=O)N[C@@H](CC(C)C)C(=O)N[C@@H](CCCCN)C(=O)N[C@H](C(=O)O)C(C)C)CCOCCOCCC(=O)N[C@@H](Cc1c[nH]cn1)C(=O)N[C@@H](Cc1c[nH]c2ccccc12)C(=O)N[C@@H](CC(C)C)C(=O)N[C@@H](CCCCN)C(=O)N[C@H](C(=O)O)C(C)C [aPD5, arachidoyl-NPEG4-(HWLKV)2]",profound itching,
"CC(C)C[C@H](CN)CC(=O)O [pregabalin, reference compound]",,up to 4 hours
"CCCCCCCCCCCCCCCCCC(=O)N(CCOCCOCCC(=O)N[C@@H](Cc1c[nH]cn1)C(=O)N[C@@H](Cc1c[nH]c2ccccc12)C(=O)N[C@@H](CC(C)C)C(=O)N[C@@H](CCCCN)C(=O)N[C@H](C(=O)O)C(C)C)CCOCCOCCC(=O)N[C@@H](Cc1c[nH]cn1)C(=O)N[C@@H](Cc1c[nH]c2ccccc12)C(=O)N[C@@H](CC(C)C)C(=O)N[C@@H](CCCCN)C(=O)N[C@H](C(=O)O)C(C)C [sPD5, stearoyl-NPEG4-(HWLKV)2]",profound itching,
